Assay results: ChEMBL document CHEMBL4814018, “Rationally designed TNF-α inhibitors: Identification of promising cytotoxic agents” (Bioorg Med Chem Lett, 2021)
Active and inactive are the calls of the source. No cut-off for these calls is given here.

Key:
[1] = test system: BV-2; assay: Cytotoxicity against mouse BV2 cells incubated for 48 hrs by MTT assay; assay type: cell-based; conditions: BV-2, 48 h
[2] = test system: UO-31; assay: Growth inhibition of human UO-31 cells at 10 uM incubated for 48 hrs by sulforhodamine B assay relative to control; assay type: functional; conditions: read-out: GI
[3] = test system: SW-620; assay: Growth inhibition of human SW-620 cells at 10 uM incubated for 48 hrs by sulforhodamine B assay relative to control; assay type: functional; conditions: read-out: GI
[4] = test system: BV-2; assay: Antiinflammatory activity against mouse BV2 cells assessed as inhibition of LPS-induced TNFalpha production at 1 uM by enzyme immunoassay; assay type: functional
[5] = test system: Panel NCI-60 (60 carcinoma cell lines); assay: Growth inhibition of human Panel NCI-60 (60 carcinoma cell lines) incubated for 48 hrs by sulforhodamine B assay; assay type: functional
[6] = test system: OVCAR-5; assay: Growth inhibition of human OVCAR-5 cells at 10 uM incubated for 48 hrs by sulforhodamine B assay relative to control; assay type: functional; conditions: read-out: GI
[7] = test system: U-251; assay: Growth inhibition of human U-251 cells at 10 uM incubated for 48 hrs by sulforhodamine B assay relative to control; assay type: functional; conditions: read-out: GI
[8] = test system: NCI-H460; assay: Growth inhibition of human NCI-H460 cells incubated for 48 hrs by sulforhodamine B assay; assay type: functional
[9] = test system: IGROV-1; assay: Growth inhibition of human IGROV-1 cells at 10 uM incubated for 48 hrs by sulforhodamine B assay relative to control; assay type: functional; conditions: read-out: GI
[10] = test system: MDA-MB-468; assay: Growth inhibition of human MDA-MB-468 cells at 10 uM incubated for 48 hrs by sulforhodamine B assay relative to control; assay type: functional; conditions: read-out: GI
[11] = test system: T47D; assay: Growth inhibition of human T47D cells incubated for 48 hrs by sulforhodamine B assay; assay type: functional
[12] = Therapeutic index, ratio of LC50 for human Panel NCI-60 (60 carcinoma cell lines) to GI50 for human Panel NCI-60 (60 carcinoma cell lines); assay type: functional
[13] = test system: MCF7; assay: Growth inhibition of human MCF7 cells incubated for 48 hrs by sulforhodamine B assay; assay type: functional
[14] = test system: CAKI-1; assay: Growth inhibition of human CAKI-1 cells at 10 uM incubated for 48 hrs by sulforhodamine B assay relative to control; assay type: functional; conditions: read-out: GI
[15] = test system: TK-10; assay: Growth inhibition of human TK-10 cells incubated for 48 hrs by sulforhodamine B assay; assay type: functional
[16] = test system: MDA-MB-231; assay: Growth inhibition of human MDA-MB-231 cells at 10 uM incubated for 48 hrs by sulforhodamine B assay relative to control; assay type: functional; conditions: read-out: GI
[17] = test system: K562; assay: Growth inhibition of human K562 cells incubated for 48 hrs by sulforhodamine B assay; assay type: functional
[18] = test system: MDA-MB-468; assay: Growth inhibition of human MDA-MB-468 cells incubated for 48 hrs by sulforhodamine B assay; assay type: functional
[19] = test system: TK-10; assay: Growth inhibition of human TK-10 cells at 10 uM incubated for 48 hrs by sulforhodamine B assay relative to control; assay type: functional; conditions: read-out: GI
[20] = test system: CAKI-1; assay: Growth inhibition of human CAKI-1 cells incubated for 48 hrs by sulforhodamine B assay; assay type: functional
[21] = test system: NCI-H460; assay: Growth inhibition of human NCI-H460 cells at 10 uM incubated for 48 hrs by sulforhodamine B assay relative to control; assay type: functional; conditions: read-out: GI
[22] = test system: UACC-257; assay: Growth inhibition of human UACC-257 cells incubated for 48 hrs by sulforhodamine B assay; assay type: functional
[23] = test system: UACC-62; assay: Growth inhibition of human UACC-62 cells at 10 uM incubated for 48 hrs by sulforhodamine B assay relative to control; assay type: functional; conditions: read-out: GI
[24] = test system: OVCAR-4; assay: Growth inhibition of human OVCAR-4 cells incubated for 48 hrs by sulforhodamine B assay; assay type: functional
[25] = test system: OVCAR-5; assay: Growth inhibition of human OVCAR-5 cells incubated for 48 hrs by sulforhodamine B assay; assay type: functional
[26] = test system: UO-31; assay: Growth inhibition of human UO-31 cells incubated for 48 hrs by sulforhodamine B assay; assay type: functional
[27] = test system: BV-2; assay: Antiinflammatory activity against mouse BV2 cells assessed as reduction in LPS-induced IL6 production at 1 uM by enzyme immunoassay; assay type: functional, cell-based
[28] = test system: BV-2; assay: Antiinflammatory activity against mouse BV2 cells assessed as decrease in LPS-induced NO production at 1 to 5 uM pretreated with compound followed by LPS stimulation incubated for 4 to 48 hrs by enzyme immunoassay; assay type: functional, cell-based; conditions: dose 1-5 µM, time 4-48 hrs
[29] = test system: UACC-62; assay: Growth inhibition of human UACC-62 cells incubated for 48 hrs by sulforhodamine B assay; assay type: functional
[30] = test system: HOP-62; assay: Growth inhibition of human HOP-62 cells at 10 uM incubated for 48 hrs by sulforhodamine B assay relative to control; assay type: functional; conditions: read-out: GI
[31] = test system: HOP-62; assay: Growth inhibition of human HOP-62 cells incubated for 48 hrs by sulforhodamine B assay; assay type: functional
[32] = test system: T47D; assay: Growth inhibition of human T47D cells at 10 uM incubated for 48 hrs by sulforhodamine B assay relative to control; assay type: functional; conditions: read-out: GI
[33] = test system: U-251; assay: Growth inhibition of human U-251 cells incubated for 48 hrs by sulforhodamine B assay; assay type: functional
[34] = test system: HOP-92; assay: Growth inhibition of human HOP-92 cells incubated for 48 hrs by sulforhodamine B assay; assay type: functional
[35] = test system: SW-620; assay: Growth inhibition of human SW-620 cells incubated for 48 hrs by sulforhodamine B assay; assay type: functional
[36] = test system: K562; assay: Growth inhibition of human K562 cells at 10 uM incubated for 48 hrs by sulforhodamine B assay relative to control; assay type: functional; conditions: read-out: GI
[37] = test system: SR; assay: Growth inhibition of human SR cells at 10 uM incubated for 48 hrs by sulforhodamine B assay relative to control; assay type: functional; conditions: read-out: GI
[38] = test system: OVCAR-3; assay: Growth inhibition of human OVCAR-3 cells at 10 uM incubated for 48 hrs by sulforhodamine B assay relative to control; assay type: functional; conditions: read-out: GI
[39] = test system: SK-MEL-2; assay: Growth inhibition of human SK-MEL-2 cells incubated for 48 hrs by sulforhodamine B assay; assay type: functional
[40] = test system: OVCAR-3; assay: Growth inhibition of human OVCAR-3 cells incubated for 48 hrs by sulforhodamine B assay; assay type: functional
[41] = test system: SR; assay: Growth inhibition of human SR cells incubated for 48 hrs by sulforhodamine B assay; assay type: functional
[42] = test system: MDA-MB-231; assay: Growth inhibition of human MDA-MB-231 cells incubated for 48 hrs by sulforhodamine B assay; assay type: functional
[43] = test system: HOP-92; assay: Growth inhibition of human HOP-92 cells at 10 uM incubated for 48 hrs by sulforhodamine B assay relative to control; assay type: functional; conditions: read-out: GI
[44] = test system: MCF7; assay: Growth inhibition of human MCF7 cells at 10 uM incubated for 48 hrs by sulforhodamine B assay relative to control; assay type: functional; conditions: read-out: GI
[45] = test system: RPMI-8226; assay: Growth inhibition of human RPMI8226 cells at 10 uM incubated for 48 hrs by sulforhodamine B assay relative to control; assay type: functional; conditions: read-out: GI
[46] = test system: RPMI-8226; assay: Growth inhibition of human RPMI-8226 cells incubated for 48 hrs by sulforhodamine B assay; assay type: functional; conditions: dose 10 µM
[47] = test system: HCT-116; assay: Growth inhibition of human HCT-116 cells incubated for 48 hrs by sulforhodamine B assay; assay type: functional
[48] = test system: SF-295; assay: Growth inhibition of human SF-295 cells at 10 uM incubated for 48 hrs by sulforhodamine B assay relative to control; assay type: functional; conditions: read-out: GI
[49] = test system: UACC-257; assay: Growth inhibition of human UACC-257 cells at 10 uM incubated for 48 hrs by sulforhodamine B assay relative to control; assay type: functional; conditions: read-out: GI
[50] = test system: HCT-116; assay: Growth inhibition of human HCT-116 cells at 10 uM incubated for 48 hrs by sulforhodamine B assay relative to control; assay type: functional; conditions: read-out: GI
[51] = test system: IGROV-1; assay: Growth inhibition of human IGROV-1 cells incubated for 48 hrs by sulforhodamine B assay; assay type: functional
[52] = test system: NCI-H226; assay: Growth inhibition of human NCI-H226 cells at 10 uM incubated for 48 hrs by sulforhodamine B assay relative to control; assay type: functional; conditions: read-out: GI
[53] = test system: SK-MEL-2; assay: Growth inhibition of human SK-MEL-2 cells at 10 uM incubated for 48 hrs by sulforhodamine B assay relative to control; assay type: functional; conditions: read-out: GI
[54] = test system: NCI-H226; assay: Growth inhibition of human NCI-H226 cells incubated for 48 hrs by sulforhodamine B assay; assay type: functional
[55] = test system: SF-295; assay: Growth inhibition of human SF-295 cells incubated for 48 hrs by sulforhodamine B assay; assay type: functional
[56] = test system: OVCAR-4; assay: Growth inhibition of human OVCAR-4 cells at 10 uM incubated for 48 hrs by sulforhodamine B assay relative to control; assay type: functional; conditions: read-out: GI
[57] = read-out: LC50 (the source's name)

Compound: O=C1COCCN1c1ccc(N2C(=O)C(Cl)C2c2cn(Cc3ccc(Cl)cc3)c3ccccc23)cc1 (stereo not given)
- IC50 [1]: > 10000 nM

Compound: O=C1COCCN1c1ccc(NCc2cn(Cc3ccc(F)cc3)c3ccccc23)cc1
- inhibition of growth at 10 µM [2]: 96%
- inhibition of growth at 10 µM [3]: 87%
- Activity [4]: Active
- GI50 [5]: 1310 nM
- TGI [5]: 15100 nM
- CC50 [5, 57]: 70800 nM
- inhibition of growth at 10 µM [6]: 100%
- inhibition of growth at 10 µM [7]: 80%
- GI50 [8]: 120 nM
- inhibition of growth at 10 µM [9]: 100%
- inhibition of growth at 10 µM [10]: 100%
- GI50 [11]: 70 nM
- IC50 [1]: > 10000 nM
- TI [12]: 54
- GI50 [13]: 110 nM
- inhibition of growth at 10 µM [14]: 100%
- GI50 [15]: 40 nM
- CC50 [15, 57]: > 100000 nM
- inhibition of growth at 10 µM [16]: 72%
- GI50 [17]: 1510 nM
- GI50 [18]: 20 nM
- CC50 [18, 57]: 500 nM
- inhibition of growth at 10 µM [19]: 100%
- GI50 [20]: 20 nM
- CC50 [20, 57]: > 100000 nM
- inhibition of growth at 10 µM [21]: 93%
- GI50 [22]: 200 nM
- inhibition of growth at 10 µM [23]: 100%
- GI50 [24]: 150 nM
- GI50 [25]: 40 nM
- CC50 [25, 57]: > 100000 nM
- GI50 [26]: 2750 nM
- Activity [27]: Active
- Activity [28]: Active
- GI50 [29]: 40 nM
- CC50 [29, 57]: 800 nM
- inhibition of growth at 10 µM [30]: 77%
- GI50 [31]: 1470 nM
- inhibition of growth at 10 µM [32]: 99%
- GI50 [33]: 1410 nM
- GI50 [34]: 1540 nM
- GI50 [35]: 480 nM
- inhibition of growth at 10 µM [36]: 89%
- inhibition of growth at 10 µM [37]: 68%
- inhibition of growth at 10 µM [38]: 100%
- GI50 [39]: 1200 nM
- GI50 [40]: 280 nM
- GI50 [41]: 4500 nM
- GI50 [42]: 3800 nM
- inhibition of growth at 10 µM [43]: 96%
- inhibition of growth at 10 µM [44]: 100%
- inhibition of growth at 10 µM [45]: 98%
- GI50 [46]: 540 nM
- GI50 [47]: 50 nM
- CC50 [47, 57]: > 100000 nM
- inhibition of growth at 10 µM [48]: 90%
- inhibition of growth at 10 µM [49]: 100%
- inhibition of growth at 10 µM [50]: 96%
- GI50 [51]: 30 nM
- CC50 [51, 57]: > 100000 nM
- inhibition of growth at 10 µM [52]: 100%
- inhibition of growth at 10 µM [53]: 100%
- GI50 [54]: 40 nM
- CC50 [54, 57]: 1100 nM
- GI50 [55]: 1090 nM
- inhibition of growth at 10 µM [56]: 100%

Compound: O=c1[nH]cc(F)c(=O)[nH]1 [FLUOROURACIL]
- TI [12]: >133

Compound: COc1cccc2c1C(=O)c1c(O)c3c(c(O)c1C2=O)C[C@@](O)(C(=O)CO)C[C@@H]3O[C@H]1C[C@H](N)[C@H](O)[C@H](C)O1 [DOXORUBICIN]
- TI [12]: 134

Compound: O=C1COCCN1c1ccc(N2C(=O)C(Cl)C2c2cn(Cc3ccccc3)c3ccccc23)cc1 (stereo not given)
- IC50 [1]: > 10000 nM
